Measurements published in patent publication US12662469B2 (SIRONAX LTD, priority 2018, dated 2026).

The compounds below were run on Cell Necrosis (assay: Cell necrosis assay / cell viability assay (necrosis inhibitor activity)). Settings: necrosis inhibitor activity; compounds outside 14-191; read-out: EC50.
Format: cell-based

Q: For `O=C(N1CCN(c2ncc3cn[nH]c3n2)CC1)N1N=CC[C@H]1c1cc(F)cc(F)c1` [Compound 260, (S)-(4-(1H-pyrazolo[3,4-d]pyrimidin-6-yl)piperazin-1-yl)(5-(3,5-difluorophenyl)-4,5-dihydro-1H-pyrazol-1-yl)methanone], which EC50 is on record?
A: 1 to 1000 nM

Q: `O=C(c1cc2sc(OC3CN(C(=O)N4N=CC[C@H]4c4cc(F)cc(F)c4)C3)nc2[nH]1)N1CCC1` [Compound 261, (S)-azetidin-1-yl(2-((1-(5-(3,5-difluorophenyl)-4,5-dihydro-1H-pyrazole-1-carbonyl)azetidin-3-yl)oxy)-4H-pyrrolo[2,3-d]thiazol-5-yl)methanone] was tested. Which EC50 did it give?
A: 1 to 1000 nM

Q: `CNc1nc(OC2CN(C(=O)N3N=CC[C@H]3c3cc(F)cc(F)c3)C2)c(F)cc1F` [Compound 262, (S)-(3-((3,5-difluoro-6-(methylamino)pyridin-2-yl)oxy)azetidin-1-yl)(5-(3,5-difluorophenyl)-4,5-dihydro-1H-pyrazol-1-yl)methanone] was tested. Which EC50 did it give?
A: 1 to 1000 nM

Q: With `N#Cc1ccnc(OC2CN(C(=O)N3N=CC[C@H]3c3cc(F)cc(F)c3)C2)n1` [Compound 264, (S)-2-((1-(5-(3,5-difluorophenyl)-4,5-dihydro-1H-pyrazole-1-carbonyl)azetidin-3-yd)oxy)pyrimidine-4-carbonitrile] as the compound, how does the EC50 read?
A: 1 to 1000 nM

Q: With `N#Cc1nccc(OC2CN(C(=O)N3N=CC[C@H]3c3cc(F)cc(F)c3)C2)n1` [Compound 265, (S)-4-((1-(5-(3,5-difluorophenyl)-4,5-dihydro-1H-pyrazole-1-carbonyl)azetidin-3-yl)oxy)pyrimidine-2-carbonitrile] as the compound, how does the EC50 read?
A: 1 to 1000 nM

Q: With `O=C(N1CC(Oc2nc(NCCO)ncc2F)C1)N1N=CC[C@H]1c1cc(F)cc(F)c1` [Compound 266, (S)-(5-(3,5-difluorophenyl)-4,5-dihydro-H-pyrazol-1-yl)(3-((5-fluoro-2-((2-hydroxyethyl)amino)pyrimidin-4-yl)oxy)azetidin-1-yl)methanone] as the compound, how does the EC50 read?
A: 1 to 1000 nM

Q: With `O=C(N1CC(Oc2nc(Cl)ncc2F)C1)N1N=CC[C@H]1c1cc(F)cc(F)c1` [Compound 267] as the compound, how does the EC50 read?
A: 1 to 1000 nM

Q: How did the EC50 turn out when `CNc1ncc(F)c(OC2CN(C(=O)N3N=CC[C@H]3c3cc(F)cc(F)c3)C2)n1` [Compound 268, (S)-(5-(3,5-difluorophenyl)-4,5-dihydro-1H-pyrazol-1-yl)(3-((5-fluoro-2-(methylamino)pyrimidin-4-yl)oxy)azetidin-1-yl)methanone] was run?
A: 1 to 1000 nM

Q: How did the EC50 turn out when `N#CCCNc1ncc(F)c(OC2CN(C(=O)N3N=CC[C@H]3c3cc(F)cc(F)c3)C2)n1` [Compound 269, (S)-3-((4-((1-(5-(3,5-fluorophenyl)-4,5-dihydro-1H-pyrazole-1-carbonyl)azetidin-3-yl)oxy)-5-fluoropyrimidin-2-yl)amino)propanenitrile] was run?
A: 1 to 1000 nM

Q: For `NC(=O)CCNc1ncc(F)c(OC2CN(C(=O)N3N=CC[C@H]3c3cc(F)cc(F)c3)C2)n1` [Compound 270, (S)-3-((4-((1-(5-(3,5-difluorophenyl)-4,5-dihydro-1H-pyrazole-1-carbonyl)azetidin-3-yl)oxy)-5-fluoropyrimidin-2-yl)amino)propanamide], which EC50 is on record?
A: 1 to 1000 nM

Q: How did the EC50 turn out when `COc1nc(N2CCN(C(=O)N3N=CC[C@H]3c3cc(F)cc(F)c3)CC2)ncc1F` [Compound 271, (S)-(5-(3,5-difluorophenyl)-4,5-dihydro-1H-pyrazol-1-yl)(4-(5-fluoro-4-methoxypyrimidin-2-yl)piperazin-1-yl)methanone] was run?
A: 1 to 1000 nM

Q: `CCOC(=O)c1nc(OC2CN(C(=O)N3N=CC[C@H]3c3cc(F)cc(F)c3)C2)sc1Cl` [Compound 272, ethyl (S)-5-chloro-2-((1-(5-(3,5-difluorophenyl)-4,5-dihydro-1H-pyrazole-1-carbonyl)azetidin-3-yl)oxy)thiazol-4-carboxylate] was tested. Which EC50 did it give?
A: 1 to 1000 nM

Q: How did the EC50 turn out when `CNC(=O)c1nc(OC2CN(C(=O)N3N=CC[C@H]3c3cc(F)cc(F)c3)C2)sc1Cl` [Compound 273, (S)-5-chloro-2-((1-(5-(3,5-difluorophenyl)-4,5-dihydro-1H-pyrazole-1-carbonyl)azetidin-3-yl)oxy)-N-methylthiazole-4-carboxamide] was run?
A: 1 to 1000 nM

Q: How did the EC50 turn out when `NC(=O)c1nc(OC2CN(C(=O)N3N=CC[C@H]3c3cc(F)cc(F)c3)C2)sc1Cl` [Compound 274, (S)-5-chloro-2-((1-(5-(3,5-difluorophenyl)-4,5-dihydro-1H-pyrazole-1-carbonyl)azetidin-3-yl)oxy)thiazole-4-carboxamide] was run?
A: 1 to 1000 nM

Q: `O=C(c1nc(OC2CN(C(=O)N3N=CC[C@H]3c3cc(F)cc(F)c3)C2)sc1Cl)N1CCC1` [Compound 275] was tested. Which EC50 did it give?
A: 1 to 1000 nM

Q: How did the EC50 turn out when `O=C(N1CC(Oc2nc3ccccc3s2)C1)N1N=CCC1c1cc(F)cc(F)c1` (stereo not shown) [Compound 276, (3-(benzo[d]thiazol-2-yloxy)azetidin-1-yl)(5-(3,5-difluorophenyl)-4,5-dihydro-1H-pyrazol-1-yl)methanone] was run?
A: 1 to 1000 nM

Q: How did the EC50 turn out when `O=C1CCc2ccc(C=C3CN(C(=O)N4N=CCC4c4cc(F)cc(F)c4)C3)cc2N1` (stereo not shown) [Compound 277, 7-((1-(5-(3,5-difluorophenyl)-4,5-dihydro-1H-pyrazole-1-carbonyl)azetidin-3-yildene)methyl)-3,4-dihydroquinolin-2(1H)-one] was run?
A: 1 to 1000 nM

Q: For `O=C1COc2ccc(C=C3CN(C(=O)N4N=CC[C@H]4c4cc(F)cc(F)c4)C3)cc2N1` [Compound 278, 6-((1-(5-(3,5-difluorophenyl)-4,5-dihydro-1H-pyrazole-1-carbonyl)azetidin-3-ylidene)methyl)-2H-benzo[b][1,4]oxazin-3(4H)-one], which EC50 is on record?
A: 1 to 1000 nM

Q: With `O=C(N1CCN(c2ncc3cc[nH]c3n2)CC1)N1N=CC[C@H]1c1cc(F)cc(F)c1` [Compound 279, (S)-(4-(7H-pyrrolo[2,3-d]pyrimidin-2-yl)piperazin-1-yl)(5-(3,5-difluorophenyl)-4,5-dihydro-1H-pyrazol-1-yl)methanone] as the compound, how does the EC50 read?
A: 1 to 1000 nM

Q: For `NC(=O)c1cnc(OC2CN(C(=O)N3N=CC[C@H]3c3cc(F)cc(F)c3)C2)s1` [Compound 280, (S)-2-((1-(5-(3,5-difluorophenyl)-4,5-dihydro-1H-pyrazole-1-carbonyl)azetidin-3-yl)oxy)thiazole-5-carboxamide], which EC50 is on record?
A: 1 to 1000 nM

Q: With `N#Cc1csc(OC2CN(C(=O)N3N=CCC3c3cncc(F)c3)C2)n1` (stereo not shown) [Compound 281, 2-((1-(5-(5-fluoropyridin-3-yl)-4,5-dihydro-1H-pyrazole-1-carbonyl)azetidin-3-yl)oxy)thiazole-4-carbonitrile] as the compound, how does the EC50 read?
A: 1 to 1000 nM

Q: How did the EC50 turn out when `O=C(N1CC(=Cc2ccc3c(c2)NC(=O)C3(F)F)C1)N1N=CC[C@H]1c1cc(F)cc(F)c1` [Compound 283, (S)-6-((1-(5-(3,5-difluorophenyl)-4,5-dihydro-1H-pyrazole-1-carbonyl)azetidin-3-ylidene)methyl)-3,3-difluoroindolin-2-one] was run?
A: 1 to 1000 nM

Q: `O=C(N1CC(=Cc2ccc3[nH]cnc3c2)C1)N1N=CC[C@H]1c1cc(F)cc(F)c1` [Compound 284] was tested. Which EC50 did it give?
A: 1 to 1000 nM

Q: Which EC50 does the source give for `O=C(N1CC(=Cc2cc3[nH]nc(Cl)c3cc2F)C1)N1N=CC[C@H]1c1cc(F)cc(F)c1` [Compound 285, (S)-(3-((3-chloro-5-fluoro-1H-indazol-6-yl)methylene)azetidin-1-yl)(5-(3,5-difluorophenyl)-4,5-dihydro-1H-pyrazol-1-yl)methanone] here?
A: 1 to 1000 nM

Q: `O=C(N1CC(=Cc2cc3[nH][nH]c(=O)c3cc2F)C1)N1N=CC[C@H]1c1cc(F)cc(F)c1` [Compound 286, (S)-6-((1-(5-(3,5-difluorophenyl)-4,5-dihydro-1H-pyrazole-1-carbonyl)azetidin-3-ylidene)methyl)-5-fluoro-1H-315-indazol-3-one] was tested. Which EC50 did it give?
A: 1 to 1000 nM

Q: With `O=C(N1CCN(c2ncc(F)c(OCCN3CCOCC3)n2)CC1)N1N=CC[C@H]1c1cc(F)cc(F)c1` [Compound 287, (S)-(5-(3,5-difluorophenyl)-4,5-dihydro-H-pyrazol-1-yl)(4-(5-fluoro-4-(2-morpholinoethoxy)pyrimidin-2-yl)piperazin-1-yl)methanone] as the compound, how does the EC50 read?
A: 1 to 1000 nM

Q: How did the EC50 turn out when `O=C(N1CC(=Cc2ccn3nccc3c2)C1)N1N=CC[C@H]1c1cc(F)cc(F)c1` [Compound 288, (S)-(5-(3,5-difluorophenyl)-4,5-dihydro-1H-pyrazol-1-yl)(3-(pyrazolo[1,5-a]pyridin-5-ylmethylene)azetidin-1-yl)methanone] was run?
A: 1 to 1000 nM

Q: How did the EC50 turn out when `Cc1n[nH]c2cc(C=C3CN(C(=O)N4N=CC[C@H]4c4cc(F)cc(F)c4)C3)ccc12` [Compound 289, (S)-(5-(3,5-difluorophenyl)-4,5-dihydro-1H-pyrazol-1-yl)(3-((3-methyl-1H-indazol-6-yl)methylene)azetidin-1-yl)methanone] was run?
A: 1 to 1000 nM

Q: For `O=C(CC1CCCC1)Nc1nc(N2CCN(C(=O)N3N=CC[C@H]3c3cc(F)cc(F)c3)CC2)ncc1F` [Compound 290], which EC50 is on record?
A: 1 to 1000 nM

Q: Which EC50 does the source give for `CC(C)CC(=O)Nc1nc(N2CCN(C(=O)N3N=CC[C@H]3c3cc(F)cc(F)c3)CC2)ncc1F` [Compound 291, (S)—N-(2-(4-(5-(3,5-difluorophenyl)-4,5-dihydro-1H-pyrazole-1-carbonyl)piperazin-1-yl)-5-fluoropyrimidin-4-yl)-3-methylbutanamide] here?
A: 1 to 1000 nM

Q: `CC(C)C(=O)Nc1nc(N2CCN(C(=O)N3N=CC[C@H]3c3cc(F)cc(F)c3)CC2)ncc1F` [Compound 292, (S)—N-(2-(4-(5-(3,5-difluorophenyl)-4,5-dihydro-1H-pyrazole-1-carbonyl)piperazin-1-yl)-5-fluoropyrimidin-4-yl)isobutyramide] was tested. Which EC50 did it give?
A: 1 to 1000 nM

Q: Which EC50 does the source give for `O=C(Nc1nc(N2CCN(C(=O)N3N=CC[C@H]3c3cc(F)cc(F)c3)CC2)ncc1F)C1CCOCC1` [Compound 293, (S)—N-(2-(4-(5-(3,5-difluorophenyl)-4,5-dihydro-1H-pyrazole-1-carbonyl)piperazin-1-yl)-5-fluoropyrimidin-4-yl)tetrahydro-2H-pyran-4-carboxamide] here?
A: 1 to 1000 nM

Q: With `O=C(N1CC(=Cc2ccc(Cl)nc2F)C1)N1N=CC[C@H]1c1cncc(F)c1` [Compound 294, (S)-(3-((6-chloro-2-fluoropyridin-3-yl)methylene)azetidin-1-yl)(5-(5-fluoropyridin-3-yl)-4,5-dihydro-1H-pyrazol-1-yl)methanone] as the compound, how does the EC50 read?
A: 1 to 1000 nM

Q: How did the EC50 turn out when `NC(=O)c1ccc(C=C2CN(C(=O)N3N=CC[C@H]3c3cc(F)cc(F)c3)C2)cn1` [Compound 295, (S)-5-((1-(5-(3,5-difluorophenyl)-4,5-dihydro-1H-pyrazole-1-carbonyl)azetidin-3-ylidene)methyl)picolinamide] was run?
A: 1 to 1000 nM
